From US20240140983A1, “SINGLE STRANDED DNA ENZYME INHIBITORS” (MASSEY UNIVERSITY, priority 2021, published 2024)
Blank lines part the entries; values can stand above or below the molecule they belong to.

Assays:
[1] = target: T1, wild-type APOBEC3A (Homo sapiens, UniProt P31941); assay: NMR assay: wild-type APOBEC3A-catalysed deamination of dC-hairpin-3, Lambert's W function; type: biochemical; conditions: pH 7.4, 140 nM enzyme, 500 μM dC-hairpin-3
T1 construct: His7 (C); made in house
Method: Inhibitors were tested in the NMR assay monitoring APOBEC3A-catalysed deamination of dC-hairpin-3. Deamination data was analysed using Lambert's W function as described in Example 5.

[2] = tested on: A3BCTD-QM-ΔL3-AL1swap; assay: NMR assay: inhibition of A3BCTD-QM-ΔL3-AL1swap-catalyzed deamination of a linear substrate (initial rates); type: biochemical, human; conditions: for Ki / Vmax: 5′-AT3dCAT3 substrate, 50 nM enzyme; for inhibition effect: Km of 5′-AT3dCAT3 (150 μM) compared with apparent Ki: non-linear regression analysis
Method: FIG. 6. is a set of graphs showing inhibition of A3BCTD-QM-ΔL3-AL1swap-catalyzed deamination of 5′-T4CAT by dZ/FdZ-containing linear and cross-linked oligos. Initial rate of deamination was measured under the following experimental conditions: 400 μM of 5′-T4CAT, 8 μM (A, B) or 4 μM (C) of dZ/FdZ-containing oligos, 300 nM (A, B) or 200 nM (C) of A3BCTD-QM-ΔL3-AL1swap in a 50 mM sodium phosphate buffer (pH 6.0) containing 100 mM NaCl, 2.5 mM β-mercaptoethanol, 0.1 M EDTA, 50 μM 3-(trimethylsilyl)-2,2,3,3-tetradeuteropropionic acid (TSP) at 25° C. Error bars are estimated standard deviations from triplicate measurements.
FIG. 13 is a graph showing the inhibition of A3BCTD-QM-ΔL3-AL1swap-catalyzed deamination of 5′-T4CAT by linear oligos containing dZ, 34R, 34S and 46. Initial rate of deamination was measured under the following experimental conditions: 400 μM of 5′-T4CAT, at oligo concentration as indicated, 300 nM of A3BCTD-QM-ΔL3-AL1swap in a 50 mM sodium phosphate buffer (pH 6.0) containing 100 mM NaCl, 2.5 mM β-mercaptoethanol, 0.1 M EDTA, 50 μM 3-(trimethylsilyl)-2,2,3,3-tetradeuteropropionic acid (TSP) and 20% D2O at 25° C. Error bars are estimated standard deviations from triplicate measurements.
The inhibition potential of cross-linked oligos was investigated by changing dC to dZ or FdZ in these constructs. The NMR assay described in Example 4 was used to compare the internally cross-linked dZ/FdZ-containing oligos with a linear DNA inhibitor containing dZ/FdZ (dZ-linear is 5′-AT3dZAT3, FdZ-linear is 5′-AT3FdZAT3) that were characterized earlier.^1-2 Residual activity of A3BCTD-QM-ΔL3-AL1swap on the unmodified oligo (5′-T4dCAT) as a substrate in the presence of a known concentration of dZ/FdZ-containing inhibitors (linear and cross-linked) was measured using NMR assay.
(§1) For determination of inhibition constants (KI) of inhibitors the inventors first evaluated kinetic parameters of A3BCTD-QM-ΔL3-AL1swap on two DNA substrates (Table 5), which were used to detect the residual deamination rate in the presence of inhibitors (Table 6). Fitting the experimental data by non-linear least squares using a global fit provided similar values of kinetic parameters to those obtained by the linearized Lineweaver-Burk plot (Table 5). Then, the inhibition constants for strongest cross-linked inhibitors were calculated by several methods assuming a competitive mode of inhibition^1 (Table 6) based on experiments in which the concentration of the individual inhibitor was varied, and the residual deamination initial rate was measured.
Residual activity of A3BCTD-QM-ΔL3-AL1swap on the unmodified oligo (5′-T4CAT) as a substrate in the presence of a known concentration of inhibitors was measured using the NMR assay as described in Example 5.

[3] = target: A3BCTD-QM-ΔL3-AL1swap; assay: Isothermal titration calorimetry (ITC), binding to A3BCTD-QM-ΔL3-AL1swap; design: species or system human; conditions: ITC buffer 3 (Na+/K+ phosphate, pH 6.0, 200 mM trimethylamine N-oxide), 25° C
Text: (§2) The inventors used isothermal titration calorimetry (ITC) to determine binding of the cross-linked oligos to A3 enzymes, specifically to A3A-E72A, where the active-site glutamic acid is replaced with alanine, and to the catalytically competent A3BCTD-QM-ΔL3-AL1swap and compared this binding to that of linear oligos.
For oligos containing dZ, catalytically active A3BCTD-QM-ΔL3-AL1swap was used, as it has the active-site glutamic acid required for protonation of N3 in dZ, which activates C4 in dZ to accept nucleophilic OH^−/H2O coordinated to the Zn^2+, which converts dZ into a transition-state or an intermediate analogue of cytidine deamination.^8
For A3BCTD-QM-ΔL3-AL1swap we used ITC buffer 3: 50 mM Na^+/K^+ phosphate, pH 6.0, 200 mM trimethylamine N-oxide dihydrate, 2.5 mM TCEP, 200 μM EDTA. Data evaluation was performed with the software provided by the supplier of MicroCal ITC200.

[4] = target: human CDA (Homo sapiens, UniProt P32320); assay: UV-Vis based deamination assay against human CDA; type: biochemical; conditions: 27 nM human CDA; for Ki: 2 mM dC, absorbance at 286 nm, Lambert's W function
Method: FIG. 12 is a graph showing the initial rate of human CDA-catalysed deamination of 2′-deoxycytidine (dC) in the absence (no inhibitor) and presence of dZ, 34R and 34S. Conditions: 100 μM dC as a substrate, using different concentrations of inhibitors, 27 nM human CDA in 20 mM Na-phosphate buffer, pH 6.0 supplemented with 100 mM NaCl at 25° C. Absorbance was measured at 286 nm at the start of deamination. Samples labelled as “preincubated” refer to experiments when the enzyme was preincubated for 5 min with inhibitors and then 100 μM dC was added.
The seven-membered ring-containing nucleosides synthesized were tested for their inhibition potential against human CDA enzyme by a UV-Vis based deamination assay. All data were obtained by monitoring absorbance of 2′-deoxycytidine at 286 nm and 25° C., where the deamination of cytosine leads to a decrease in absorption. For nucleosides 34R and 34S, the condition of the assay used was 27 nM human CDA and 100 μM dC as a substrate in 20 mM Na-phosphate buffer, 100 mM NaCl at pH 6.0; an average of 8 measurements was done for each nucleoside. As the original 7-membered ring nucleosides were reported as slow-binding inhibitors of CDA,^10 preincubation conditions of an inhibitor with CDA were also tested for the assay and labelled as ‘preincubation’. Here, the nucleosides were preincubated with the enzyme for 5 min and then 100 μM dC substrate was added to start the measurements (FIG. 12).

[5] = tested on: A3BCTD-QM-ΔL3-AL1swap; assay: Real-time NMR assay: deamination of DNA substrates by A3BCTD-QM-ΔL3-AL1swap; type: biochemical, human
Method: FIG. 5 is a set of graphs showing the initial rate of A3BCTD-QM-ΔL3-AL1swap catalyzed deamination of terminally (A), internally (B-D) cross-linked oligos and a dC-hairpin in comparison with the linear substrate. Substrate concentrations are 100 μM in (A and B), 800 μM in (C) and 400 μM in (D). Enzyme concentrations are 50 nM in (A and B) and 300 nM in (C) and 100 nM in (D). Buffers are 50 mM citrate-phosphate (pH 5.5 for A-C) and 50 mM Na-phosphate (pH 6.0 for D), 200 mM NaCl, 2 mM β-mercaptoethanol, 200 μM 4,4-dimethyl-4-silapentane-1-sulfonic acid (DSS) and 10% D2O at 25° C. Error bars are estimated standard deviations from triplicate measurements.
Real-time NMR assays are advantageous because they are direct, utilizing only A3 enzymes and oligos in a suitable buffer system, in contrast to many fluorescence-based assays where a secondary enzyme and a fluorescently modified oligo are used. The NMR-based assay described herein allows a Michaelis-Menten kinetic model to be used to characterize both A3 substrates and inhibitors based on direct determination of the initial velocity of deamination of various ssDNA substrates (including modified substrates) in the presence of A3 enzymes.
The A3 enzyme used in the experiments detailed herein is the well-characterized and very active A3BCTD-QM-ΔL3-AL1swap,^1 where loop 3 is deleted and loop 1 is replaced with the corresponding loop 1 from A3A in addition to four point mutations remote to the enzyme's active site. […] Recent work by the inventors on the related enzyme, A3G, has shown that inhibition of the C-terminal catalytic domain is mirrored by the inhibition of the full-length enzyme, validating their approach of using catalytic C-terminal domains for inhibitor development.^2
Using the 9-mer oligonucleotide ATTTCATTT (5′-AT3dCAT3) (SEQ ID NO: 1) as the standard substrate, the inventors compared the deamination of both terminally and internally cross-linked oligos prepared as above using a previously described real-time NMR assay.^1, 45 For the terminally cross-linked oligos, decreased rates of deamination were observed from 9-mer to 5-mer. The number of phosphates of the modified 9-mer sequence is the same as for the 9-mer DNA control (FIG. 5A). […] The next internal cross-link 2 was designed based on modified nucleotides dU^E and dA^N3. […] However, a marked 2.3 times increase in deamination rate was detected for oligo dC[C^N3(−2),H^E1(+1)]X having internal cross-link 3 connecting −2 and +1 positions in the DNA sequence (FIG. 5D). It is surprising that synthetic oligo dC[C^N3(−2),H^E1(+1)]X was deaminated even faster than a native DNA hairpin.
as §1

[6] = target: A3A-E72A (Homo sapiens, UniProt P31941, E72A); assay: Isothermal titration calorimetry (ITC), binding to A3A-E72A; conditions: 25° C
Method: as §2
Desalted unmodified DNA oligonucleotides were purchased (Integrated DNA Technologies) at 1 or 5 μmol synthesis scale and dissolved in one of the buffers described below to give 10 mM solutions. ITC experiments were conducted at 25° C. using a MicroCal ITC200 (now Malvern Instruments) isothermal titration calorimeter. […] The ratio of protein to oligonucleotide concentration is usually 1:10. Titrations are made up of 30 individual additions. To prevent protein precipitation during the long time-scale of the experiment it was necessary to used improved ITC buffers. ITC buffer 1: 50 mM MES, pH 6.0, 100 mM NaCl, 200 μM EDTA, 1 mM β-mercaptoethanol and ITC buffer 2: 50 mM Na^+/K^+ phosphate, pH 6.0, 50 mM NaCl, 50 mM choline acetate, 2.5 mM TCEP, 200 μM EDTA with 30 mg/mL BSA. After preparation, ITC buffer 2 was frozen and defrosted before the experiments. ITC buffer 2* is freshly prepared buffer 2.
In contrast, A3A-E72 Å was used, particularly for oligos containing dC so that the complications of deamination can be avoided, although this mutation, notwithstanding no change to active-site structure, does cause a small but significant diminution in ligand binding^1 through loss of hydrogen bonding to the ligand. The inventors expect that the binding of inactivated A3BCTD-QM-ΔL3-AL1swap to the substrate will be close to or even worse than Km of 200 μM, which places substrate binding outside ITC applicability. One should emphasise that the composition of buffers used for NMR kinetic and ITC binding experiments are different, mainly because proteins in ITC experiments need to be at much higher concentration than for kinetic assays (10-100 μM for ITC versus 20-300 nM in kinetic experiments).

[7] = Lineweaver-Burk plot for the substrate/Dixon plot for the inhibitor
[8] = Non-linear regression analysis for both substrate and inhibitor
[9] = Linear analysis (Lineweaver-Burk plot)

Sequence of human CDA (P32320 whole entry): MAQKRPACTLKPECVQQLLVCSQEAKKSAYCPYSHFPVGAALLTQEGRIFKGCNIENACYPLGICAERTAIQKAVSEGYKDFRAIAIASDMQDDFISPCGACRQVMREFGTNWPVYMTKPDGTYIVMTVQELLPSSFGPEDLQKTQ
Sequence of A3A-E72A (P31941 whole entry E72A): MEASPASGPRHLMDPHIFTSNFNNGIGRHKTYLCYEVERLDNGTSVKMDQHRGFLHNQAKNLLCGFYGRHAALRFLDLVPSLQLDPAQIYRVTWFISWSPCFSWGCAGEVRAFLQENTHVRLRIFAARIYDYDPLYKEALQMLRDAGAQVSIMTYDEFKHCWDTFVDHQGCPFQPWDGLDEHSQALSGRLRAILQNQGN
T1 sequence (P31941 whole entry): as the sequence (P31941 whole entry E72A) above, with A72E counted along it

Ki [2, 7]: 7.5 ± 1.7 µM
Ki [2, 8]: 7 ± 1.3 µM
inhibition effect: Km of 5′-AT3dCAT3 (150 μM) compared with apparent Ki [2]: 20 fold
Kd [3]: 11.4 ± 2.3 µM
Molecule: 5′-AT3dZAT3 [dZ-linear]
Vmax [2, 8]: 0.0126 ± 0.0008 µM/s

inhibitory potential against human CDA ([4]; 100 μM dC, pH 6.0, 25° C, with and without 5 min preincubation (FIG. 12)): some inhibitory potential
Molecule: O=C1CC[C@H](O)CCN1[C@H]1C[C@H](O)[C@@H](CO)O1 [compound 34S, 1-[2-deoxy-β-D-erythro-pentofuranosyl]-(S)-5-hydroxyazepan-2-one]

Ki [4]: 10.7 ± 0.5 µM
Molecule: O=c1ncccn1[C@H]1C[C@H](O)[C@@H](CO)O1 [dZ, 2′-deoxyzebularine]

The remaining lines, values behind:

Molecule: 5'-TGCGCTT-46-GCGCT [46-hairpin-3]
Ki [1]: 0.29 ± 0.04 µM

Molecule: 5′-AT3FdZAT3 [FdZ-linear]
inhibition of deamination of 5′-T4CAT (in words) ([2]; 400 μM 5′-T4CAT, 8 or 4 μM oligo, 300 or 200 nM enzyme, pH 6.0 (FIG. 6)): more powerful inhibitor of A3BCTD-QM-ΔL3-AL1swap than dZ-linear oligo
Ki [2, 7]: 2.1 ± 0.8 µM
Ki [2, 8]: 4.4 ± 0.7 µM
Vmax [2, 8]: 0.0126 ± 0.0008 µM/s
inhibition effect: Km of 5′-AT3dCAT3 (150 μM) compared with apparent Ki [2]: 35 fold
Ki [1]: 2.4 ± 0.94 µM

Molecule: O=C1NCC=CCN1[C@H]1C[C@H](O)[C@@H](CO)O1 [compound 46, 1-[2-deoxy-β-D-erythro-pentofuranosyl]-1,3,4,7-tetrahydro-2H-1,3-diazepin-2-one]
Ki [4]: 0.43 ± 0.08 µM

Molecule: ATTTCATTT [5′-AT3dCAT3]
Km [5, 9]: 200 ± 30 µM
Vmax [5, 9]: 0.014 ± 0.002 µM/s
kcat [5, 9]: 0.29 ± 0.04 s⁻¹
Km ([5]; Non-linear regression analysis): 150 µM
Vmax ([5]; Non-linear regression analysis): 0.0126 ± 0.0008 µM/s
kcat ([5]; Non-linear regression analysis): 0.26 ± 0.02 s⁻¹
Kd ([6]; ITC buffer 1 (50 mM MES, pH 6.0)): 0.2 ± 0.06 µM
Kd ([6]; ITC buffer 2 (Na+/K+ phosphate, pH 6.0, BSA; frozen and defrosted)): 0.12 ± 0.03 µM
Kd ([6]; ITC buffer 2* (freshly prepared buffer 2)): 0.13 ± 0.03 µM
